From EP0808325B1, “[…] […] SERIES FOR […] GABA RECEPTOR” (priority 1994, dated 1996) come the findings set out here.

Assay [1] deals with metrazol induced convulsions. Put plainly: animal or person. Format: in vivo, mice. The procedure:
Experiments were also performed to determine the physiological relevance of neuroactive steroid and GABA receptor interactions by assessing the ability of the compounds of and used in the invention to prevent metrazol induced convulsions in mice. […] The time to onset of myoclonus (presence of forelimb clonic activity) induced by metrazol was determined by observing each mouse for a period of 30 minutes. […]
The anticonvulsant tests are similar to that described above. […] The number of animals with tonic and/or clonic convulsions was recorded. In the maximal electroshock test, 50 mA of current at 60 Hz was delivered through corneal electrodes for 200 msec to induce tonic seizure. The ability of compounds to abolish the tonic component was defined as the endpoint. General CNS depression potential was determined by a rotorod test 10 minutes after the injection of compounds where the number of mice staying on a rotating (6 rpm) rod for 1 minute in one of the three trials was determined. […]

Assay [2] deals with GR complex. The assay is described as follows: modulation of [35S]TBPS binding in rat cerebral cortex P2 homogenate. Also on record: species or system Sprague-Dawley rats; IMAX: unit not given here. The settings on record: for IC50: concentration of compounds to inhibit 50% of control [35S]TBPS binding, 2 nM [35S]TBPS, 25°C, 90 minutes; for IMAX: maximum inhibition of [35S]TBPS binding, I* = Inactive. The procedure: We performed several experiments to determine the nature of the modulation of [^35S]TBPS as affected by the compounds of the invention.
These procedures were performed as follows:
Brains from male Sprague-Dawley rats were removed immediately following sacrifice and the cerebral cortices dissected over ice. […] Briefly, the cortices were gently homogenized in 0.32 M sucrose followed by centrifugation at 1000 x g for 10 minutes. The supernatant was collected and centrifuged at 9000 x g for 20 minutes. The resultant P2 pellet was suspended as a 10% (original wet weight/volume) suspension in 50 mM Na/K phosphate buffer (pH 7.4) 200 mM NaCI to form the homogenate.
One hundred microliter […] aliquots of the P2 homogenate (0.5 milligrams (mg) protein) were incubated with 2 nanomolar (nM) [^35S]TBPS (70-110 curies/millimole;, New England Nuclear, Boston, MA) in the presence or absence of the naturally occurring steroids or their synthetic derivatives to be tested. The tested compounds were dissolved in dimethylsulfoxide (Baker Chem. Co., Phillipsbury, NJ) and added to the incubation mixture in 5 µL aliquots. The incubation mixture was brought to a final volume of 1 mL with buffer. Nonspecific binding was defined as binding in the presence of […]. The effect and specificity of GABA (Sigma Chem. Co., St. Louis, MO) was evaluated by performing all assays in the presence of GABA plus (+)bicuculline (Sigma Chem. Co.). Incubations maintained at 25°C for 90 minutes (steady state conditions) were terminated by rapid filtration through glass fiber filters (No. 32, Schleicher and Schuell, Keene, NH). Filter-bound radioactivity was quantitated by liquid scintillation spectrophotometry.
Various compounds were screened to determine their potential as modulators of [^35S]TBPS binding in vitro. These assays were performed in accordance with the above discussed procedures. […] It is an indication of a compound's in vitro potency. Maximum inhibition is an indication of a compound's in vitro efficacy.

The mark [3] stands for this setting: IP, 50% hpbcd, 10 mg/kg, 10 minutes prior to metrazol (85 mg/kg).
Setting [4] is: 60 mg/kg, 1 hr, IP, anti-metrazol.

As to `CC(C)(O)[C@H]1CC[C@H]2[C@@H]3CC[C@@H]4C[C@](C)(O)CC[C@]4(C)[C@H]3CC[C@]12C` [3α,20-Dihydroxy-3β,20-dimethyl-5β-pregnane], in assay [1] (IP, micro soln., 10 mg/kg), the “% Protected” value came out at 22.2%.
The term IC50 denotes the point on the concentration scale where inhibition reaches its midpoint. On to `C#C[C@@]1(O)CC[C@@]2(C)[C@@H](CC[C@@H]3[C@@H]2CC[C@]2(C)[C@@H]([C@@H](C)O)CC[C@@H]32)C1` [3α,20β-dihydroxy-3β-ethynyl-5α-pregnane, 3β-ethynyl-3α,20β-dihydroxy- 5α-pregnane], for which the IC50 in assay [2] (no unit printed) was determined as 774 nM. Also, the IMAX in assay [2] is reported as 107. Moreover, in assay [1] (setting [3]), the “% Protected” value came out at 37.5%.
`C#C[C@@]1(O)CC[C@@]2(C)[C@H](CC[C@@H]3[C@@H]2CC[C@]2(C)[C@@H]([C@@H](C)O)CC[C@@H]32)C1` [3α,20β-dihydroxy-3β-ethynyl-5β-pregnane, 3β-Ethynyl-3α,20β-dihydroxy-5β-pregnane] returned an IC50 in assay [2] (no unit printed) of 688 nM. Moreover, the IMAX in assay [2] is on record as 77. Also, the “% Protected” value in assay [1] (setting [3]) is listed as 25%.
`C[C@]12CC[C@](O)(C(F)(F)F)C[C@H]1CC[C@@H]1[C@@H]2CC[C@]2(C)[C@@H](C(=O)COC(=O)CCC(=O)O)CC[C@@H]12` [3α,21-Dihydroxy-3β-trifluoromethyl-5β-pregnan-20-one, 21-hemisuccinate]: the concentration for half-maximal inhibition (IC50) in assay [2] (no unit printed) came out at 648 nM. This compound registered an IMAX in assay [2] of 101. Moreover, the “% Protected” value in assay [1] (IP, water, 10 mg/kg) is reported as 50%.
As for `CC(=O)OCC(=O)[C@H]1CC[C@H]2[C@@H]3CC[C@H]4C[C@](C)(O)CC[C@]4(C)[C@H]3CC[C@]12C` [3α,21-Hydroxy-3β-methyl-5α-pregnan-20-one, 21-acetate], the IC50 in assay [2] (no unit printed) stood at 284 nM. In assay [2], this compound showed an IMAX of 93. Also, the “% Protected” value in assay [1] (IP, micro soln., 10 mg/kg) is listed as 10%.
For `C[C@@]1(O)CC[C@@]2(C)[C@@H](CC[C@@H]3[C@@H]2CC[C@]2(C)[C@@H](C(=O)COC(=O)CCC(=O)[O-])CC[C@@H]32)C1.[Na+]` [3α,21-dihydroxy-3β-methyl-5α-pregnan-20-one 21-Hemisuccinate, sodium salt], in assay [2] (unit inferred, sodium salt), the IC50 turned out to be 211 nM. For the same compound, in assay [2], the IMAX is given as 104. Further, the “% Protected” value in assay [1] (IP, micro soln., 10 mg/kg) amounted to 11.11%.
With `C[C@@]1(O)CC[C@@]2(C)[C@@H](CC[C@@H]3[C@@H]2CC[C@]2(C)[C@@H](C(=O)COC(=O)CCC(=O)O)CC[C@@H]32)C1` [3α,21-dihydroxy-3β-methyl-5α-pregnan-20-one 21-hemisuccinate], in assay [2] (no unit printed), the IC50 stood at 241 nM. The compound also registered an IMAX in assay [2] of 92. The “% Protected” value in assay [1] (IP, water, 10 mg/kg) is reported as 37.5%.
Compound `C[C@@]1(O)CC[C@@]2(C)[C@@H](CC[C@@H]3[C@@H]2CC[C@]2(C)[C@@H](C(=O)CO)CC[C@@H]32)C1` [3α,21-dihydroxy-3β-methyl-5α-pregnan-20-one] registered a half-inhibitory concentration (IC50) in assay [2] (no unit printed) of 258 nM. The compound further registered an IMAX in assay [2] of 96. The “% Protected” value in assay [1] (setting [3]) was 87.5%.
With `C[C@]12CC[C@@H](O)C[C@@H]1CC[C@@H]1[C@@H]2CC[C@]2(C)[C@@H](C(=O)COC(=O)CCC(=O)[O-])CC[C@@H]12.[Na+]` [3α,21-dihydroxy-5α-pregnan-20-one 21-hemisuccinate, sodium salt], in assay [2] (unit inferred, sodium salt), the IC50 worked out at 251 nM. In assay [2], the IMAX is listed as 92. Moreover, the “% Protected” value in assay [1] (IP, water, 60 mg/kg) turned out to be 100%.
Compound `CC(=O)OCC(=O)[C@H]1CC[C@H]2[C@@H]3CC[C@@H]4C[C@H](O)CC[C@]4(C)[C@H]3CC[C@]12C` [3α,21-dihydroxy-5β-pregnan-20-one 21-acetate] came in with an IC50 in assay [2] (no unit printed) of 119 nM. The IMAX in assay [2] is 49. Besides, the “% Protected” value in assay [1] (setting [3]) was 25%.
Turning to `CC(=O)[C@H]1CC[C@H]2[C@@H]3CC[C@H]4C[C@](O)(C(F)(F)F)CC[C@]4(C)[C@H]3CC[C@]12C` [3α-Hydroxy-3β-trifluoromethyl-5α-pregnan-20-one], in assay [2] (no unit printed), the IC50 was 244 nM. Moreover, the IMAX in assay [2] came to 44. Further, in assay [1] (setting [3]), the “% Protected” value worked out at 62.5%.
In turn, `CC(=O)[C@H]1CC[C@H]2[C@@H]3CC[C@H]4C[C@](C)(O)CC[C@@H]4[C@H]3CC[C@]12C` [3α-hydroxy-3β-methyl-5α-19-nor-pregnan-20-one] came in with an IC50 in assay [2] (no unit printed) of 91 nM. This compound came in with an IMAX in assay [2] of 80. In assay [1] (IP, micro soln., 10 mg/kg), the “% Protected” value is on record as 37.5%.
For `CCCCC#C[C@@]1(O)CC[C@@]2(C)[C@H](CC[C@@H]3[C@@H]2CC[C@]2(C)[C@@H](C(C)=O)CC[C@@H]32)C1` [3β-(1-hexynyl)-3α-hydroxy-5β-pregnan-20-one], the “% Protected” value in assay [1] (setting [3]) turned out to be 37.5%.
With `CC(=O)[C@H]1CC[C@H]2[C@@H]3CC[C@@H]4C[C@@](O)(C#CC5CC5)CC[C@]4(C)[C@H]3CC[C@]12C` [3β-Cyclopropylethynyl-3α-hydroxy-5β-pregnan-20-one], the IC50 turned out to be 22 nM in assay [2] (no unit printed) and 32 nM in assay [2] (no unit printed, listed as 3β-(cyclopropyl)ethynyl-3α-hydroxy-5β-pregnan-20-one). The IMAX was 94 in assay [2] and 97 in assay [2] (listed as 3β-(cyclopropyl)ethynyl-3α-hydroxy-5β-pregnan-20-one). Also, the “% Protected” value in assay [1] (setting [3]) stood at 87.5%.
As to `CC(=O)C1CCC2C3CCC4CC(OC(=O)c5ccc(Cl)cc5)CCC4(C)C3CCC12C` (stereo not shown) [4-Chlorophenyl], the “% Protection” value in assay [1] (setting [4]) was determined as 50%.
Turning to `COc1ccc(C(=O)OC2CCC3(C)C(CCC4C3CCC3(C)C(C(C)=O)CCC43)C2)cc1` (stereo not shown) [4-Methoxyphenyl], the “% Protection” value in assay [1] (setting [4]) is 17%.
As for `CCCCC(=O)OC1CCC2(C)C(CCC3C2CCC2(C)C(C(C)=O)CCC32)C1` (stereo not shown) [Butyl], in assay [1] (mouse, in vivo), the “% Protection” value is 33%.
Take `CCC(=O)OC1CCC2(C)C(CCC3C2CCC2(C)C(C(C)=O)CCC32)C1` (stereo not shown) [Ethyl]: the “% Protection” value in assay [1] (setting [4]) is given as 75%.
With `CC(=O)C1CCC2C3CCC4CC(OC(=O)C(C)C)CCC4(C)C3CCC12C` (stereo not shown) [Example 2-Propyl], the “% Protection” value in assay [1] (setting [4]) came to 75%.
On to `CC(=O)C1CCC2C3CCC4CC(OC(=O)c5cccnc5)CCC4(C)C3CCC12C` (stereo not shown) [Example 3-Pyridyl], for which the “% Protection” value in assay [1] (60 mg/kg, IP, 20 hour, anti-metrazol) was 50 (20 hour) %.
As to `CCCC(CCC)C(=O)OC1CCC2(C)C(CCC3C2CCC2(C)C(C(C)=O)CCC32)C1` (stereo not shown) [Example 4-Heptyl], the “% Protection” value in assay [1] (60 mg/kg, IP, 4 hour, anti-metrazol) is on record as 16 (4 hour) %.
Regarding `CC(=O)OC1CCC2(C)C(CCC3C2CCC2(C)C(C(C)=O)CCC32)C1` (stereo not shown) [Methyl], in assay [1] (setting [4]), the “% Protection” value amounted to 25%.
Turning to `CC(=NCCO)[C@H]1CC[C@H]2[C@@H]3CC[C@H]4C[C@](C)(O)CC[C@]4(C)[C@H]3CC[C@]12C` [N-(3α-hydroxy-3β-methyl-5α-pregnan-20-ylidine)ethanolamine], the IC50 in assay [2] (no unit printed) came out at 101 nM. The compound also showed an IMAX in assay [2] of 93.
As for `CC(=O)C1CCC2C3CCC4CC(OC(=O)c5ccccc5)CCC4(C)C3CCC12C` (stereo not shown) [Phenyl], in assay [1] (setting [4]), the “% Protection” value stood at 33%.
Regarding `CCCC(=O)O[C@@H]1CC[C@@]2(C)[C@@H](CC[C@@H]3[C@@H]2CC[C@]2(C)[C@@H](C(C)=O)CC[C@@H]32)C1` [Propyl], the “% Protection” value in assay [1] (setting [4]) came to 75%.
`CC(C)CCC[C@@H](C)[C@H]1CC[C@H]2[C@@H]3CC=C4C[C@@H](O)CC[C@]4(C)[C@H]3CC[C@]12C` [cholesterol, reference compound]: the IC50 in assay [2] (no unit printed) was > 1000 nM. Also, the IMAX entry in assay [2] is on record as “I*”.
For the compound `C[C@]12C[C@H](O)[C@H]3[C@@H](CCC4=CC(=O)CC[C@@]43C)[C@@H]1CC[C@@H]2C(=O)CO` [corticosterone, reference compound], in assay [2] (no unit printed), the IC50 was > 1000 nM. Further, the IMAX result in assay [2] is given as “I*”.
For the compound `CC(=O)[C@H]1CC[C@H]2[C@@H]3CCC4=CC(=O)CC[C@]4(C)[C@H]3CC[C@]12C` [progesterone, reference compound], in assay [2] (no unit printed), the IC50 is > 1000 nM. Moreover, the IMAX entry in assay [2] was “I*”.
